According to the supplement of paper PMC10307832:

What was measured:
Assay in all cases: relative viability (nuclei count vs DMSO), 5 days (fraction); higher = more cells survive
[1] = compound: CC1=C(C=CC(=C1)[N+](=O)[O-])NS(=O)(=O)C2=C(C=CC(=C2)Cl)Cl [FH535] + Nc1nc2[nH]cc(CCc3ccc(C(=O)N[C@@H](CCC(=O)O)C(=O)O)cc3)c2c(=O)[nH]1 [Pemetrexed] (partner 0.2 µM)
Summary of the method: (§1)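 A single step with final 0.05% Triton X-100, 1% formaldehyde and 1 ug/ml Hoechst fixed the cells and stained nuclei 5 days after treatment. Lung cancer cell lines in 1536-well plates had been treated by pin tool the day after seeding with one drug alone or a fixed anchor-drug dose plus five library-drug doses (not always all listed) in √10 steps, and nuclei were counted on 4× images. Relative viability is the ratio of nuclei in treated wells to nuclei in vehicle wells, taken as the median of duplicate plates.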

[2] = compound: CC1=C(C=CC(=C1)[N+](=O)[O-])NS(=O)(=O)C2=C(C=CC(=C2)Cl)Cl [FH535] + Nc1ncn([C@H]2C[C@H](O)[C@@H](CO)O2)c(=O)n1 [Decitabine] (partner 2 µM)
Summary of the method: as §1

[3] = compound: CC1=C(C=CC(=C1)[N+](=O)[O-])NS(=O)(=O)C2=C(C=CC(=C2)Cl)Cl [FH535] + O=C(c1cc(Cc2n[nH]c(=O)c3ccccc23)ccc1F)N1CCN(C(=O)C2CC2)CC1 [Olaparib] (partner 8 µM)
Summary of the method: as §1

[4] = compound: CC1=C(C=CC(=C1)[N+](=O)[O-])NS(=O)(=O)C2=C(C=CC(=C2)Cl)Cl [FH535] + O=C(CCCCCCC(=O)Nc1ccccc1)NO [Vorinostat] (partner 1 µM)
Summary of the method: as §1

[5] = compound: CC1=C(C=CC(=C1)[N+](=O)[O-])NS(=O)(=O)C2=C(C=CC(=C2)Cl)Cl [FH535] + Cc1nc(NC(=O)N2CCC[C@H]2C(N)=O)sc1-c1ccnc(C(C)(C)C(F)(F)F)c1 [Alpelisib] (partner 2 µM)
Summary of the method: as §1

With HCC-44 the relative viability ([1]; first compound 0.04 µM) was 0.647, the relative viability ([1]; first compound 0.1265 µM) was 0.687 and the relative viability ([1]; first compound 0.4 µM) was 0.604. It also gave a relative viability ([1]; first compound 1.265 µM) of 0.628, a relative viability ([2]; first compound 0.04 µM) of 0.896 and a relative viability ([2]; first compound 0.1265 µM) of 0.938. It also gave a relative viability ([2]; first compound 0.4 µM) of 0.845, a relative viability ([2]; first compound 1.265 µM) of 0.835 and a relative viability ([3]; first compound 0.04 µM) of 0.976. For the same cell line, the relative viability ([3]; first compound 0.1265 µM) was 0.929, the relative viability ([3]; first compound 0.4 µM) was 0.969 and the relative viability ([3]; first compound 1.265 µM) was 0.768. It also gave a relative viability ([4]; first compound 0.04 µM) of 1.11, a relative viability ([4]; first compound 0.1265 µM) of 1.1 and a relative viability ([4]; first compound 0.4 µM) of 1.03. The relative viability ([4]; first compound 1.265 µM) was 0.818, the relative viability ([5]; first compound 0.04 µM) was 0.779 and the relative viability ([5]; first compound 0.1265 µM) was 0.843. For the same cell line, the relative viability ([5]; first compound 0.4 µM) was 0.741 and the relative viability ([5]; first compound 1.265 µM) was 0.566.
In the case of LCLC-103H, the relative viability ([1]; first compound 0.04 µM) is reported as 0.456, the relative viability ([1]; first compound 0.1265 µM) is reported as 0.48 and the relative viability ([1]; first compound 0.4 µM) is reported as 0.467. For the same cell line, the relative viability ([1]; first compound 1.265 µM) was 0.52, the relative viability ([2]; first compound 0.04 µM) was 0.672 and the relative viability ([2]; first compound 0.1265 µM) was 0.787. The relative viability ([2]; first compound 0.4 µM) was 0.718, the relative viability ([2]; first compound 1.265 µM) was 0.503 and the relative viability ([3]; first compound 0.04 µM) was 0.757. For the same cell line, the relative viability ([3]; first compound 0.1265 µM) was 0.774, the relative viability ([3]; first compound 0.4 µM) was 0.75 and the relative viability ([3]; first compound 1.265 µM) was 0.474. It also gave a relative viability ([4]; first compound 0.04 µM) of 0.569, a relative viability ([4]; first compound 0.1265 µM) of 0.781 and a relative viability ([4]; first compound 0.4 µM) of 0.694. The relative viability ([4]; first compound 1.265 µM) was 0.666, the relative viability ([5]; first compound 0.04 µM) was 0.906 and the relative viability ([5]; first compound 0.1265 µM) was 0.935. It also gave a relative viability ([5]; first compound 0.4 µM) of 1.01 and a relative viability ([5]; first compound 1.265 µM) of 0.927.
Cell Line ChaGo-K-1 has a relative viability ([1]; first compound 0.04 µM) of 0.259, a relative viability ([1]; first compound 0.1265 µM) of 0.237 and a relative viability ([1]; first compound 0.4 µM) of 0.273. It also gave a relative viability ([1]; first compound 1.265 µM) of 0.255, a relative viability ([2]; first compound 0.04 µM) of 0.496 and a relative viability ([2]; first compound 0.1265 µM) of 0.517. For the same cell line, the relative viability ([2]; first compound 0.4 µM) was 0.54, the relative viability ([2]; first compound 1.265 µM) was 0.377 and the relative viability ([3]; first compound 0.04 µM) was 0.384. It also gave a relative viability ([3]; first compound 0.1265 µM) of 0.404, a relative viability ([3]; first compound 0.4 µM) of 0.403 and a relative viability ([3]; first compound 1.265 µM) of 0.286. It also gave a relative viability ([4]; first compound 0.04 µM) of 0.469, a relative viability ([4]; first compound 0.1265 µM) of 0.732 and a relative viability ([4]; first compound 0.4 µM) of 0.693. The relative viability ([4]; first compound 1.265 µM) was 0.59.
Cell Line NCI-H1703 has a relative viability ([3]; first compound 0.04 µM) of 0.429, a relative viability ([3]; first compound 0.1265 µM) of 0.461 and a relative viability ([3]; first compound 0.4 µM) of 0.486. For the same cell line, the relative viability ([3]; first compound 1.265 µM) was 0.392, the relative viability ([5]; first compound 0.04 µM) was 0.403 and the relative viability ([5]; first compound 0.1265 µM) was 0.362. It also gave a relative viability ([5]; first compound 0.4 µM) of 0.327 and a relative viability ([5]; first compound 1.265 µM) of 0.269.
With NCI-H727 the relative viability ([2]; first compound 0.04 µM) was 0.845, the relative viability ([2]; first compound 0.1265 µM) was 0.945 and the relative viability ([2]; first compound 0.4 µM) was 0.851. The relative viability ([2]; first compound 1.265 µM) was 0.877, the relative viability ([3]; first compound 0.04 µM) was 0.746 and the relative viability ([3]; first compound 0.1265 µM) was 0.675. The relative viability ([3]; first compound 0.4 µM) was 0.527, the relative viability ([3]; first compound 1.265 µM) was 0.549 and the relative viability ([4]; first compound 0.04 µM) was 1.17. The relative viability ([4]; first compound 0.1265 µM) was 1.15, the relative viability ([4]; first compound 0.4 µM) was 1.1 and the relative viability ([4]; first compound 1.265 µM) was 1.22. For the same cell line, the relative viability ([5]; first compound 0.04 µM) was 0.542, the relative viability ([5]; first compound 0.1265 µM) was 0.523 and the relative viability ([5]; first compound 0.4 µM) was 0.518. It also gave a relative viability ([5]; first compound 1.265 µM) of 0.533.
NCI-H2228 showed a relative viability ([1]; first compound 0.04 µM) of 0.312, a relative viability ([1]; first compound 0.1265 µM) of 0.364 and a relative viability ([1]; first compound 0.4 µM) of 0.327. The relative viability ([1]; first compound 1.265 µM) was 0.341, the relative viability ([3]; first compound 0.04 µM) was 0.783 and the relative viability ([3]; first compound 0.1265 µM) was 0.886. For the same cell line, the relative viability ([3]; first compound 0.4 µM) was 0.709, the relative viability ([3]; first compound 1.265 µM) was 0.698 and the relative viability ([4]; first compound 0.04 µM) was 0.585. For the same cell line, the relative viability ([4]; first compound 0.1265 µM) was 0.698, the relative viability ([4]; first compound 0.4 µM) was 0.977 and the relative viability ([4]; first compound 1.265 µM) was 0.593. It also gave a relative viability ([5]; first compound 0.04 µM) of 0.687, a relative viability ([5]; first compound 0.1265 µM) of 0.669 and a relative viability ([5]; first compound 0.4 µM) of 0.911. It also gave a relative viability ([5]; first compound 1.265 µM) of 0.63.
Cell Line NCI-H1650 has a relative viability ([1]; first compound 0.04 µM) of 0.408, a relative viability ([1]; first compound 0.1265 µM) of 0.371 and a relative viability ([1]; first compound 0.4 µM) of 0.355. For the same cell line, the relative viability ([1]; first compound 1.265 µM) was 0.306, the relative viability ([2]; first compound 0.04 µM) was 0.323 and the relative viability ([2]; first compound 0.1265 µM) was 0.427. For the same cell line, the relative viability ([2]; first compound 0.4 µM) was 0.46, the relative viability ([2]; first compound 1.265 µM) was 0.442 and the relative viability ([3]; first compound 0.04 µM) was 0.841. It also gave a relative viability ([3]; first compound 0.1265 µM) of 0.741, a relative viability ([3]; first compound 0.4 µM) of 0.698 and a relative viability ([3]; first compound 1.265 µM) of 0.641. For the same cell line, the relative viability ([4]; first compound 0.04 µM) was 0.492, the relative viability ([4]; first compound 0.1265 µM) was 0.564 and the relative viability ([4]; first compound 0.4 µM) was 0.509. For the same cell line, the relative viability ([4]; first compound 1.265 µM) was 0.441.
Work on NCI-H1792 yielded a relative viability ([1]; first compound 0.04 µM) of 0.708, a relative viability ([1]; first compound 0.1265 µM) of 0.807 and a relative viability ([1]; first compound 0.4 µM) of 0.673. It also gave a relative viability ([1]; first compound 1.265 µM) of 0.54, a relative viability ([2]; first compound 0.04 µM) of 0.564 and a relative viability ([2]; first compound 0.1265 µM) of 0.523. The relative viability ([2]; first compound 0.4 µM) was 0.506, the relative viability ([2]; first compound 1.265 µM) was 0.457 and the relative viability ([3]; first compound 0.04 µM) was 0.463. The relative viability ([3]; first compound 0.1265 µM) was 0.329, the relative viability ([3]; first compound 0.4 µM) was 0.39 and the relative viability ([3]; first compound 1.265 µM) was 0.345. It also gave a relative viability ([5]; first compound 0.04 µM) of 0.64, a relative viability ([5]; first compound 0.1265 µM) of 0.73 and a relative viability ([5]; first compound 0.4 µM) of 0.664. For the same cell line, the relative viability ([5]; first compound 1.265 µM) was 0.53.
In the case of NCI-H1563, the relative viability ([1]; first compound 0.04 µM) is reported as 0.786, the relative viability ([1]; first compound 0.1265 µM) is reported as 0.679 and the relative viability ([1]; first compound 0.4 µM) is reported as 0.752. It also gave a relative viability ([1]; first compound 1.265 µM) of 0.625, a relative viability ([5]; first compound 0.04 µM) of 0.89 and a relative viability ([5]; first compound 0.1265 µM) of 0.931. For the same cell line, the relative viability ([5]; first compound 0.4 µM) was 0.981 and the relative viability ([5]; first compound 1.265 µM) was 0.837.
IA-LM gave a relative viability ([3]; first compound 0.04 µM) of 0.768, a relative viability ([3]; first compound 0.1265 µM) of 0.732 and a relative viability ([3]; first compound 0.4 µM) of 0.712. It also gave a relative viability ([3]; first compound 1.265 µM) of 0.503, a relative viability ([4]; first compound 0.04 µM) of 0.999 and a relative viability ([4]; first compound 0.1265 µM) of 1.14. For the same cell line, the relative viability ([4]; first compound 0.4 µM) was 0.954, the relative viability ([4]; first compound 1.265 µM) was 0.914 and the relative viability ([5]; first compound 0.04 µM) was 0.827. The relative viability ([5]; first compound 0.1265 µM) was 0.691, the relative viability ([5]; first compound 0.4 µM) was 0.642 and the relative viability ([5]; first compound 1.265 µM) was 0.688.
In the case of CAL-12T, the relative viability ([1]; first compound 0.04 µM) is reported as 1.24, the relative viability ([1]; first compound 0.1265 µM) is reported as 1.38 and the relative viability ([1]; first compound 0.4 µM) is reported as 1.04. The relative viability ([1]; first compound 1.265 µM) was 0.877, the relative viability ([3]; first compound 0.04 µM) was 0.693 and the relative viability ([3]; first compound 0.1265 µM) was 0.813. The relative viability ([3]; first compound 0.4 µM) was 0.612, the relative viability ([3]; first compound 1.265 µM) was 0.411 and the relative viability ([4]; first compound 0.04 µM) was 0.562. It also gave a relative viability ([4]; first compound 0.1265 µM) of 0.927, a relative viability ([4]; first compound 0.4 µM) of 0.802 and a relative viability ([4]; first compound 1.265 µM) of 0.492. The relative viability ([5]; first compound 0.04 µM) was 1.21, the relative viability ([5]; first compound 0.1265 µM) was 1.16 and the relative viability ([5]; first compound 0.4 µM) was 1.06. It also gave a relative viability ([5]; first compound 1.265 µM) of 1.01.
